Experimental data taken from patent publication US6545131B1, “Tissue specific prodrug” (priority 1997, dated 2003).

Key:
[1] = molecular target: T1, endoplasmic reticulum Ca2+-ATPase (SERCA), SR vesicles from rabbit skeletal muscle (Oryctolagus cuniculus, UniProt P04191); assay: SERCA inhibition: 45Ca2+ uptake to sarcoplasmic reticulum vesicles; type: biochemical; settings: mean (n=3) ± standard error; 5 μg/ml SR protein, free Ca2+ 100 nM, 4 min uptake; read-out: IC50 (50% inhibition of 45Ca2+ uptake to SR vesicles)
T1 construct: sarcoplasmic reticulum (SR) vesicles prepared from rabbit skeletal muscle; from tissue; host or cells: rabbit skeletal muscle sarcoplasmic reticulum vesicles
Experimental: The primary amine-containing thapsigargin analogs of the invention have endoplasmic reticulum Ca^2+-ATPase inhibitory activity. This activity is measured as the concentration of analog needed to inhibit 50% of this ATPase (IC50). The IC50 of the analogs of the invention is desirably at most 500 nM, preferably at most 200 nM, and more preferably at most 50 nM of analog.
The inhibitory potency of thapsigargin and its analogs was determined as the concentration required to produce 50% inhibition (i.e. IC50) of ^45Ca^2+ uptake to sarcoplasmic reticulum (SR) vesicles prepared from rabbit skeletal muscle by the method of De Meis and Hasselbach (J. Biol. Chem., 246: 4759-4763, 1971). The ^45Ca^2+ uptake assay was as described previously (Christensen, et al., FEBS, 335: 345-348, 1993), with the following modifications: 5 μg/ml of SR protein was incubated at 25EC and free Ca^2+ adjusted to 100 nM using 4 min. uptake time. Under these conditions, Ca^2+ could proceed linearly with time for at least 8 minutes. Measurements of Ca^2+ within TSU cells was determined as described previously (Lin et al., The Prostate, 33:201-207, 1997).
(§1) The IC50 results are mean (n=3)±standard error. The LC50 results are mean (n=5)±standard error. The entry “ND” stands for “not determined”. Clonogenic survival not determined above 10 μM for dBTG. Analogs with −boc have a t-butoxycarbonyl (boc) protected amino group.

TSU-Pr1 cells = assay: Clonogenic survival of TSU-Pr1 cells after 72 hours exposure to TG analogs; type: cell-based, human; settings: TSU-Pr1, 72 hours exposure; mean (n=5) ± standard error; read-out: LC50 (concentration needed to kill 50% of clonogenic cells)
Experimental: The primary amine-containing thapsigargin analogs of the invention have non-specific toxicity toward cells. This toxicity is measured as the concentration of analog needed to kill 50% of clonogenic cells (LC50). The LC50 of the analogs of the invention is desirably at most 20 μM, preferably at most 5 μM, and more preferably at most 500 nM of analog.
Percentage clonogenic survival of TSU-Pr1 (2×10^5 cells) following 72 hours of exposure to varying concentrations of TG analogs was performed as described in Martikainen et al. Cancer Res., 51, 4693-4700 (1991).
as §1
The androgen responsive PSA-producing LNCaP and androgen independent PSA non-producing TSU-Pr1 are human prostate cancer lines were obtained from ATCC (Rockville, Md.) and maintained by serial passage in RPMI 1640 media containing 10% fetal calf serum with 100 units/ml penicillin G, and 100 units/ml streptomycin sulfate (antibiotics from M.A. Bioproducts, Walkerville, Md.) as standard media in 5% CO2/95% air at 37° C. The origins and characteristics of the LNCaP and TSU-Pr1 cell lines are described in Horoszewicz, et al., Cancer Res., 43:1809-1818, (1980)and Iizumi, et al., J. Urol, 137: 1304-1306, (1987).

T1 sequence (P04191 1-994 isoform P04191-2): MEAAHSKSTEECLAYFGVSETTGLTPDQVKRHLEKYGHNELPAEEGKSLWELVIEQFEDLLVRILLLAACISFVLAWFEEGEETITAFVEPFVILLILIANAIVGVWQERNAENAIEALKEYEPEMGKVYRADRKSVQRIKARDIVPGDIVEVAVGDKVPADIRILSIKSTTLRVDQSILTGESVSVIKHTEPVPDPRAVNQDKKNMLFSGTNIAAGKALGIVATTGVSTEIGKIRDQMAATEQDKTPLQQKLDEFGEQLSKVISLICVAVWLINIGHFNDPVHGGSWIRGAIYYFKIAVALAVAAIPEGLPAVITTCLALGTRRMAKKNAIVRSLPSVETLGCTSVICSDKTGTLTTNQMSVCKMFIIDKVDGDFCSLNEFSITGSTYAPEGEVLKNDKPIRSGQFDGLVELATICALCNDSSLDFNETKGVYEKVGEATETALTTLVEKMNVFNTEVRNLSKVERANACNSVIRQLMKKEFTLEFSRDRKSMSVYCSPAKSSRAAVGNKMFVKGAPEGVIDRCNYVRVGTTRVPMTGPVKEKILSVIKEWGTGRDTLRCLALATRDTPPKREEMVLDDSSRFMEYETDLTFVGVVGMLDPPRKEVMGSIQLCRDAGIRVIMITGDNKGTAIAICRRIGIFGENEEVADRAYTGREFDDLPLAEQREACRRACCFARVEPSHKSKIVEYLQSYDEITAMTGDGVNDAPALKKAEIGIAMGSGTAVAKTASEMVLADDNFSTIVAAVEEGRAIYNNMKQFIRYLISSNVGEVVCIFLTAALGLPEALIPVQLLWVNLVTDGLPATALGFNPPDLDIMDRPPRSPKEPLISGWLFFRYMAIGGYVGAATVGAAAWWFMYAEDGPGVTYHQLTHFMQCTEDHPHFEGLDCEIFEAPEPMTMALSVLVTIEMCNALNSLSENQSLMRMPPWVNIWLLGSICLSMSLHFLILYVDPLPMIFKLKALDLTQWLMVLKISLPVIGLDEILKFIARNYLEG

Compound `CC=C(C)C(=O)OC1C(C)=C2C(C1OC(=O)CCCCCCC)C(C)(OC(C)=O)CC(OC(=O)C=Cc1ccc(N)cc1)C1(O)C2OC(=O)C1(C)O` (centres unmarked) [ACT, 8-O-(4-aminocinnamoyl)-8-O-debutanoylthapsigargin] has an IC50 [1] of 0.0187 ± 0.0002 µM and a CC50 (TSU-Pr1 cells) of 0.1 ± 0.006 µM.
